Test results as given in publication PMC10859961, “Ir(III) Half-Sandwich Photosensitizers with a π-Expansive Ligand for Efficient Anticancer Photodynamic Therapy” (Journal of Medicinal Chemistry, 2024).
Where two headings read alike, the source gives them in different places.

Tests used:
[1] = Reactivity of 1w with n-Bu4NCl (1H NMR); format: physicochemical; conditions: 100 equivalents of n‐Bu4NCl
Protocol: A solution of 1w (3.0 mM) with 100 equiv of n-Bu4NCl (300 mM) in a DMSO-d6/D2O (9:1, v/v) mixture was monitored by NMR spectroscopy at room temperature and at 60 °C.

[2] = Stability in DMEM (UV-vis); format: physicochemical; conditions: DMEM without phenol red; dark; 48 h
Protocol: The stability of the complexes in biological media was studied by UV–vis spectroscopy. Complexes 1 and 2 were dissolved in DMSO and complexes 3–8 were dissolved in MeOH at 1.0 × 10^–3 M and then diluted to 1.0 × 10^–5 M with Dulbecco’s modified Eagle’s medium (DMEM) without phenol red (Corning) (the final concentration of DMSO or MeOH was 1%). The solutions were studied in the dark and under blue light irradiation (470 nm).

[3] = test system: multicellular A549 tumor spheroids; assay: Cytotoxic activity against spheroids (CellTiter-Glo 3D); format: cell-based, human; conditions: for IC50: 48 h
Protocol: For the evaluation of the cytotoxic activity of complex 6 in 3D cultures, 96-well plates coated with a thin solidified layer of Geltrex reduced growth factor basement membrane matrix (Gibco) were used to form A549 spheroids. A density of 1500 single cells per well was seeded in culture medium supplemented with 2% Geltrex. Treatments with concentrations of complex 6 ranging from 5 to 0.001 μM in culture medium containing 2% Geltrex were performed at day 6. The cells were then kept in the dark or photoactivated with blue light, as described. After 48 h, the treatments were removed, the cells were washed with PBS and cell viability was determined by adding 100 μL of medium and 100 μL of CellTiter-Glo 3D reagent (Promega) to each well. Following the manufacturer’s protocol, the cells were kept in agitation for 5 min and incubated for 25 min at room temperature. Then, the luminescence was determined using a Multiscan Plate Reader (Synergy 4, Biotek, Winooski). The IC50 values were calculated with the Gen5 Data Analysis Software (BioTeck) for two independent experiments, each with duplicate samples. Nontreated cells were used as control.

[4] = test system: A549 cells; assay: Cell internalization (iridium content by ICP-MS); format: cell-based, human; conditions: for iridium content in cells: 10 μM, 1 h
Protocol: To assess the cell internalization mechanism, 8 × 10^6 A549 cells were incubated with complex 6 at 10 μM for 1 h in the dark under different conditions: (i) at 37 °C (positive control cells), (ii) at 37 °C in the presence of CCCP (50 μM) (to inhibit mitochondrial ATP production) or (iii) at 4 °C (to inhibit cellular metabolism). The cells incubated with medium alone were included as negative control. Then, the cells were washed twice with PBS, detached with trypsin, and centrifuged to obtain the whole cell pellet. […] The iridium amount in the samples was then determined by inductively coupled plasma mass spectrometry (ICP-MS) analysis. To this end, the cell pellets were dissolved in 400 μL of 69% v/v nitric acid (PanReac Applichem) and heated in a water bath at 100 °C for 18 h. Samples were then allowed to cool and diluted with Milli-Q water to a final volume of 10 mL. […] Iridium content was measured on an ICP-MS Agilent 7500c instrument at the Serveis Tècnics de Recerca, Universitat de Girona. The solvent used for all ICP-MS experiments was Milli-Q water with 2% superpure grade HNO3. The iridium standard (high purity standards, 1000 μg/mL ± 2 μg/mL in 5% hydrochloric acid in low TOC water (<50 ppb)) was diluted with 2% HNO3 to 400 ppb. Iridium standards were freshly prepared in Milli-Q water with 2% HNO3 before each experiment. The concentrations used for the calibration curve were 0, 1, 2, 5, 10, and 20 ppb. The isotope detected was 193Ir and readings were done in triplicate. Rhodium was added as an internal standard at a concentration of 10 ppb to all samples. All of the experiments were performed by duplicate.

[5] = test system: A549 cells; assay: Subcellular distribution (cell fractionation, ICP-MS); format: cell-based, human; conditions: 10 μM, 4 h, 37 °C
Protocol: The intracellular distribution of complex 6 was explored by measuring the iridium content in different cellular compartments: nucleus, membrane/particulate (which includes cellular organelles and organelle’s membrane proteins), cytosol, and cytoskeleton. To this end, 8 × 10^6 A549 cells were incubated with 6 at 10 μM for 4 h in the dark at 37 °C. Then, the cells were washed twice with PBS, detached with trypsin, and centrifuged to obtain the whole cell pellet. The viability of the cells was assessed through Trypan blue staining, which confirmed that over 95% of the cells were viable. The different cell fractions were then isolated using the FractionPREP Cell Fractionation kit (BioVision) and the total iridium content in each fraction was measured by ICP-MS in two independent experiments, as described above.

[6] = test system: A549 cells; assay: Cell death mechanism (Annexin V-FITC / propidium iodide); format: cell-based, human; conditions: photoactivated
Protocol: The cell death mechanism was analyzed with the Vybrant Apoptosis Assay Kit (Molecular Probes). A549 cells seeded in 12-well plates at a density of 1 × 10^5 cells per well were treated with complex 6 at the corresponding IC50,light × 5 under photoactivation conditions. Cisplatin at 50 μM was used as positive control. 4 and 20 h after the irradiation, cells were collected by trypsinization and immediately stained with Annexin V-FITC and propidium iodide according to the manufacturer’s instructions. The median fluorescence of 10,000 cells of each sample was analyzed by flow cytometry. Annexin-FITC staining was detected at a wavelength of 520 nm (FL1) and propidium iodide was detected at 617 nm (FL2).

Structure (SMILES) | chloride complex 1 formed back from 1w ([1]; 60 °C, 15 minutes) | chloride complex 1 formed back from 1w ([1]; room temperature, 4 days) | stability in DMEM (UV–vis changes) [2] | IC50 ([3]; blue light photoactivation, read-out: IC50,light) | IC50 ([3]; dark, read-out: IC50,dark) | PI ([3]; blue light) | iridium content in cells ([4]; 4 °C) | iridium content in cells ([4]; 37 °C, no inhibition) | iridium content in cells ([4]; CCCP pretreatment) | reduction of iridium content vs 37 °C ([4]; at 4 °C or with CCCP pretreatment) | iridium in cytoskeletal fraction [5] | iridium in cytosolic fraction [5] | iridium in membrane/organelles fraction [5] | iridium in nuclear fraction [5] | cells in early apoptosis (AN+; IP−), lower right quadrant ([6]; IC50,light × 5, 4 h) | cells in late apoptosis (AN+; IP+), upper right quadrant ([6]; IC50,light × 5, 4 h) | cells in necrosis (AN–; IP+), upper left quadrant ([6]; IC50,light × 5, 4 h) | cells in late apoptosis (AN+; IP+), upper right quadrant ([6]; IC50,light × 5, 20 h) | cells in necrosis (AN–; IP+), upper left quadrant ([6]; IC50,light × 5, 20 h)
Cc1c(C)c(C)[c-](C)c1C.[Cl][Ir]1[c]2cccc3c4nc5ccccc5nc4c4ccc[n+]1c4c23 [complex 1, [(η^5-C5Me5)IrCl(pbpz)]] | approximately 15% | 2% | minor change | – | – | – | – | – | – | – | – | – | – | – | – | – | – | – | –
Cc1c(C)c(C)[c-](C)c1C.F[B-](F)(F)F.c1ccc2cc3nc4c5ccc[n+]6c5c5[c](cccc5c4nc3cc2c1)[Ir]6[n+]1ccn(CCN2CCCCC2)c1 [complex 6, [(η^5-C5Me5) Ir(Imepip)(pbpn)]BF4] | – | – | – | 5 ± 1 nM | 1200 ± 200 nM | 240 | 18.0 ± 3 ng/10^6 cells | 87.6 ± 4 ng/10^6 cells | 17.6 ± 2 ng/10^6 cells | approximately 80% | 11.0 ± 4 ng Ir/10^6 cells | 4.6 ± 2 ng Ir/10^6 cells | 140.8 ± 20 ng Ir/10^6 cells | 7.1 ± 4 ng Ir/10^6 cells | 1.7% | 15.8% | 6.4% | 43.2% | 10.4%
